Test results taken from patent US6376506B1, “Sulfamide-metalloprotease inhibitors” (Syntex (U.S.A.) LLC, priority 1997, dated 2002).

What was measured:
[1] = target: T1, human collagenase-1 catalytic domain (Homo sapiens, UniProt P03956); experiment: MMP inhibition in vitro, human collagenase-1; assay type: biochemical; conditions: MCA-Pro-Leu-Gly-Leu-DPA-Ala-Arg-NH2 hydrolysis at 37° C.; read-out: Collagenase-I IC50
T1 construct: the collagenase-1 catalytic domain was released by treatment with 1 mM of aminophenylmercuric acetate (APMA); ubiquitin (cleaved yes); made in house; host or cells: E. coli
T1 sequence (P03956 100-269 limits assumed): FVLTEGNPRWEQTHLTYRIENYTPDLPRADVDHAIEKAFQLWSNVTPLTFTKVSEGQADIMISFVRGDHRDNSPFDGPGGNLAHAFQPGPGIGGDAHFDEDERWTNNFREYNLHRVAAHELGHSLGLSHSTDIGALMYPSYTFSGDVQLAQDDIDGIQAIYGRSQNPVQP
Description: The catalytic domain of human collagenase-1 was expressed as a fusion protein with ubiquitin in E. Coli as described in Gehring, E. R. et al., J. Biol. Chem., 270, 22507, (1995). After purification of the fusion protein, the collagenase-1 catalytic domain was released by treatment with 1 mM of aminophenylmercuric acetate (APMA) for 1 hour at 37° C. and then purified by zinc chelate chromatography.
(§1) The matrix metalloprotease inhibitory activity of compounds of this invention in vitro was determined based on the hydrolysis of MCA-Pro-Leu-Gly-Leu-DPA-Ala-Arg-NH2 (Bachem, Inc.) at 37° C. as described in Knight, C. G., et al., FEBS Lett., 296, 263-266 (1992).
(§2) The matrix metalloprotease enzyme was diluted with assay buffer (50 mM Tricine pH 7.5, 200 mM NaCl, 10 mM CaCl2, and 0.005% Brij-35) containing 10 μmole of above substrate dissolved in DMSO. Compounds of the invention dissolved in DMSO or only DMSO (control samples) were added such that the final DMSO concentration in all assays was 2.5%. The fluorescence changes were monitored with a Perkin-Elmer LS-50B flourimeter using an excitation wavelength of 328 nm and an emission wavelength of 393 nm.

[2] = target: T2, human collagenase-3 catalytic domain (Homo sapiens, UniProt P45452); experiment: MMP inhibition in vitro, human collagenase-3; assay type: biochemical; conditions: MCA-Pro-Leu-Gly-Leu-DPA-Ala-Arg-NH2 hydrolysis at 37° C.; read-out: Collagenase-III IC50
T2 construct: After purification, the catalytic domain was released by treatment with 1 mM APMA for 1 hour at 37° C; ubiquitin (N, cleaved yes); made in house; host or cells: E. coli
Description: The propeptide and catalytic domain portion of human collagcenase-3 was expressed in E. Coli as an N-terminal fusion protein with ubiquitin. After purification, the catalytic domain was released by treatment with 1 mM APMA for 1 hour at 37° C., and then purified by zinc chelate chromatography.
as §1, §2

[3] = test system: collagen matrix of bovine cartilage explants; experiment: Degradation of cartilage plug in vitro (IL-1 stimulated cartilage explant, hydroxyproline content); assay type: cell-based; conditions: IL-1-α stimulated bovine cartilage explants, 21 days, hydroxyproline content relative to control; compounds at 10 to 300 nm
Description: The ability of the compounds of this invention to inhibit the degradation of the collagen matrix (as judged by release of hydroxyproline) was determined by the cartilage plug degradation assay in vitro by following a slight modification of the method described in Spirito, S., Doughty, E., et al., “Metalloproteinase inhibitors halt collagen breakdown in IL-1 induced bovine nasal cartilage cultures” Inflamm. Res., 44, Supp. 2: S131—S132, (1995).
Cartilage explants prepared from freshly sacrificed bovine knee joints were added to the culture medium (Dubelco's modified eagle medium, Gibco # 21063-001, Gibco BRL Products, Gaithersburg, Md.), without phenol red, but with HEPES, and L-glutamine and fungizone 2.5 μg/ml, gentamicin 50 μg/ml, penicillin 100 U/ml, and streptomycin 100 μg/ml). The cultures were stimulated with IL-1-α at a final concentration of 20 ng/ml. Compounds of Formula (I), were added at concentrations between 10 and 300 nm in DMSO. The control samples contained only L-1-α. The cultures were incubated at 37° C. in an atmosphere of air with 6% CO2 for 21 days during which time the medium was changed twice/week. The cartilage plugs were removed, hydrolyzed and the hydroxyproline content was determined. The MMP inhibitory activity of test materials is the measure of the hydroxyproline content in the test group relative to the vehicle treated group (control group).

[4] = test system: bovine nasal cartilage plugs implanted subcutaneously in female Lewis rats; experiment: Cartilage plug degradation in vivo (cartilage plug implant assay, hydroxyproline content); parameters: species or system rat; conditions: 8 or 9 days, hydroxyproline content relative to vehicle group
Human Monomac 6 cells = experiment: Inhibition of TNF release in vitro assay (LPS/PMA stimulated); assay type: cell-based; conditions: Conc. 2 μM, LPS/PMA stimulated Monomac 6 cells, 2 h
Description: The activity of compounds of this invention in inhibiting the TNF release was determined, using the a minor modification of the method described in Pradines-Figueres, A. and Raetz, C. R. H., J. Biol. Chem., 267 (32), 23261, (1992).
Human Monomac 6 cells (Ziegler-Heitbrock, H. W. L., et al., Int. J. Cancer, 41, 456, (1988)) were cultured at 37° C. in RPMI 1640 medium containing 10% fetal calf serum to a density of 1×10^5 cells/ml. 0.23 ml of these cells were placed in each well of a tissue culture plate and the cells were incubated for 15 min. The test compounds were dissolved in above mentioned medium and added and the incubation was continued for an additional 15 min. 10 μl of an lipopolysaccharide/phorbol-12-myristate-13-acetate (LPS/PMA) mixture was added such that the final concentration of lipopolysaccharide was 10 ng/ml and the final concentration of phorbol-12-myristate-13-acetate was 30 ng/ml. The cells were incubated for 2 h after which the plate was centrifuged and the medium was removed and analyzed for TNF content. The analysis was performed using a TNF Quantikine® Immunoassay (R & D Systems, Minneapolis, Minn. 55413) by following the manufacturer's protocol.

TNF-α = experiment: Inhibition of LPS induced TNF-α production in mice in vivo assay; conditions: female Balb/c mice, compound subcutaneously 1 h before LPS i.p., serum TNF-α 1.5 h after LPS
Description: The activity of compounds of this invention in inhibiting the TNF-α release was determined using a minor modification of the methods described in Zanetti, G.; Heumann, D., et. al., “Cytokine production after intravenous or peritoneal Gram-negative bacterial challenge in mice” J. Immunol., 148, 1890, (1992) and Sekut, L., Menius, J. A., et. al., “Evaluation if the significance of related levels of systemic and localized tumor necrosis factor in different animal models of inflammation” J. Lab. Clin. Med., 124, 813, (1994).
Female Balb/c mice were anesthetized and injected subcutaneously with the test compounds dissolved in CMC vehicle or hydroxypropylmethyl cellulose based vehicle. Control animals received only the vehicle. After 1 h, LPS (50 μg/mouse, Sigma #13129, Sigma Chemical Co., St. Louis, Mo.) was injected intraperitoneally. After 1.5 h, blood was collected from the retro-orbital plexus region of the animals in a microtainer serum separator tube (Becton Dickinson, Cat. No. #5960, Becton Dickinson & Co., Franklin Lakes, N.J.). The sera was separated and the amount of TNF-α was determined using the EM-TNFA® kit (Endogen, Woburn, Mass.) by following the manufacturer's protocol.

| Compound | IC50 [1] [nM] | melting point [°C] | IC50 [2] [nM] | % protection [3] [%] | % protection [4] [%] | % inhibition (Human Monomac 6 cells) [%] | % inhibition (TNF-α) [%] |
| --- | --- | --- | --- | --- | --- | --- | --- |
| CC(C)[C@@H](NS(=O)(=O)N1CCN(c2ccc(Cl)cc2)CC1)C(=O)NO [compound 51, N-hydroxy-2-(R)-{[4-(4-chlorophenyl)piperazine-1-sulfonyl]amino}-3-methylbutyramide] | 490 | 154.1 to 154.8 | 2.6 | – | – | – | – |
| CC(C)[C@@H](NS(=O)(=O)N1CCC(Oc2ccc(Cl)cc2)CC1)C(=O)NO [compound 59, N-hydroxy-2-(R)-{[4-(4-chlorophenoxy)piperidine-1-sulfonyl]amino}-3-methylbutyramide] | 110 | 139.2 to 139.6 | 0.18 | 54 | 58 | – | – |
| CC(C)[C@@H](NS(=O)(=O)N1CCN(c2ccc(OCc3ccccc3)cc2)CC1)C(=O)NO [compound 74, N-hydroxy-2-(R)-{[4-(4-benzyloxyphenyl)piperazine-1-sulfonyl]amino}-3-methylbutyramide] | 7600 | 149 to 156 | 0.73 | – | – | – | – |
| CC(C)[C@@H](NS(=O)(=O)N1CCC(Oc2ccc(Cl)cn2)CC1)C(=O)NO [compound 100, N-hydroxy-2-(R)-{[4-(5-chloropyridin-2-yloxy)piperidine-1-sulfonyl]amino}-3-methylbutyramide] | – | 97 to 98.4 | – | 68 | 40 | – | – |
| O=C(NO)[C@H](CSCc1ccccc1)NS(=O)(=O)N1CCN(c2ccc(Cl)cn2)CC1 [compound 102] | 338 | 86 to 86.7 | 0.92 | – | – | – | – |
| CC(C)[C@@H](NS(=O)(=O)N1CCC(c2nc(-c3ccccc3)c[nH]2)CC1)C(=O)NO [compound 133] | 20000 | 141 to 142.3 | 18 | – | – | – | – |
| CC(C)[C@@H](NS(=O)(=O)N1CCC(Oc2ccc(F)cc2)CC1)C(=O)NO [compound 179] | 23 | 74.3 to 75.3 | 0.073 | – | – | – | – |
| O=C(c1ccc(Cl)cc1)C1CCN(S(=O)(=O)N2CCCC[C@@H]2C(=O)NO)CC1 [compound 242] | 67 | 84.4 to 86.4 | 0.063 | – | – | – | – |
| CN(C)C(=O)N1CCN(S(=O)(=O)N2CCC(c3c[nH]c4c(F)c(F)c(F)c(F)c34)CC2)[C@@H](C(=O)NO)C1 [compound 309] | > 50000 | 181 to 184 | 500 | – | – | – | – |
| O=C(NO)C1(NS(=O)(=O)N2CCN(c3ccc(Cl)cc3)CC2)CCCCC1 [compound 345, N-hydroxy-1-{[4-(4-chlorophenyl)piperazine-1-sulfonyl]amino}-cyclohexane-1-carboxamide] | 530 | 146.1 to 146.6 | 6.6 | – | – | – | – |
| C[C@@H](NS(=O)(=O)N1CC=C(c2ccc(Cl)cc2)CC1)C(=O)NO [compound 401] | 250 | 90.7 to 93 | 0.19 | – | – | – | – |
| N-hydroxy-1-[4-(4,5,6,7-tetrafluoroindol-3-yl)piperazine-1-sulfonyl]piperidine-2-(RS)-carboxamide [compound 299] | > 50000 | – | 410 | – | – | 90 | 52 |
| N-hydroxy-4-(morpholine-4-ylcarbonyl)piperazine-1-sulfonyl]-4-(S)-hydroxypiperidine-2-(R)-carboxamide [compound 321] | – | – | – | – | – | 93 | 50 |
